Here are results for two molecules from patent publication US20210395226A1, “SUBSTITUTED ARYL COMPOUND AND PREPARATION METHOD THEREFOR AND USE THEREOF” (SICHUAN KELUN-BIOTECH BIOPHARMACEUTICAL CO., LTD., priority 2018, published 2021).

Read-outs that look alike come from different tables or passages of the source.

Data set [1] has as its target T1, Adenosine A2a receptor (human) membrane (Homo sapiens, UniProt P29274).
T1 construct: purchased PerkinElmer RBHA2AM400UA
Kind of data set: Determination of competitive inhibition constant (Ki) for adenosine A2a receptor, [3H]-CGS-21680 radioligand. In kind it is binding. The conditions noted are these: for Ki: human A2a receptor membrane, 6.0 nM [3H]-CGS-21680, read-out: Ki(A2a); for Ki(A1)/Ki(A2a): selectivity ratio A1 over A2a. An outline of the steps: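 Human A2a receptor membranes (5.0 μg/well) were incubated 2 h at room temperature with [3H]-CGS-21680 (working concentration 6.0 nM) in 50 mM Tris-HCl pH 7.4, 10 mM MgCl2, 1 mM EDTA. Bound label was collected on PEI-treated GF/C filters and scintillation counted. Inhibition was scaled between 0.5% DMSO and 1000 nM CGS-15943 controls, IC50 was fitted, and Ki = IC50/(1 + [ligand]/Kd).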

A short description of data set [2]: Pharmacokinetics (PK) and distribution in brain tissue in rats. In kind it is in vivo, male SD rats. The following applies: for bioavailability / Cmax / AUC(0-t): male, SD; for bioavailability: plasma, oral 5 mg/kg compared with intravenous 1 mg/kg; for bioavailability / Plasma AUClast/brain AUClast: rat; for Cmax / AUC(0-t): rat plasma; for AUClast (brain): rat brain tissue. The protocol:
Test Example 3: Study on Pharmacokinetics (PK) and Distribution in Brain Tissue in Rats
The compounds of the present application were administered to male SD rats by intravenous (IV) and intragastric (PO) respectively to investigate the pharmacokinetic characteristics. The dosages of IV and PO were 1 mg/kg and 5 mg/kg, respectively. The solvent for IV was a mixture of 5% DMSO, 5% Solutol (polyethylene glycol 15-hydroxystearate) and 90% saline, and the solvent for PO was 0.5% MC (methyl cellulose sodium). Before IV administration (0 h) and at 0.083 h, 0.25 h, 0.5 h, 1 h, 2 h, 4 h, 6 h, 8 h and 24 h time points after administration, blood samples were collected; before PO administration (0 h) and at 0.25 h, 0.5 h, 1 h, 2 h, 4 h, 6 h, 8 h and 24 h time points after administration, blood samples were collected; the blood samples were anticoagulated with EDTA.K2, and centrifuged to obtain plasma samples. For Compound 11, brain tissue samples were taken and homogenized at 0.25 h, 0.5 h, 1 h, 4 h and 8 h; for Compounds 19 and 32, and brain tissue samples were taken and homogenized at 0.25 h, 0.5 h, 1 h and 8 h (three SD rats were selected for the experiment of distribution in brain tissue at each time point), and the resulting brain tissue homogenate samples were stored at −80° C. The plasma samples and brain tissue homogenate samples were subjected to precipitation of protein, and then LC-MS/MS analysis was performed.
Pharmacokinetic parameters were calculated by means of non-compartmental model by using WinNonlin 6.3 software.

[3] abbreviates: PO, 5 mg/kg, read-out: AUClast (plasma).

T1 sequence (P29274 whole entry): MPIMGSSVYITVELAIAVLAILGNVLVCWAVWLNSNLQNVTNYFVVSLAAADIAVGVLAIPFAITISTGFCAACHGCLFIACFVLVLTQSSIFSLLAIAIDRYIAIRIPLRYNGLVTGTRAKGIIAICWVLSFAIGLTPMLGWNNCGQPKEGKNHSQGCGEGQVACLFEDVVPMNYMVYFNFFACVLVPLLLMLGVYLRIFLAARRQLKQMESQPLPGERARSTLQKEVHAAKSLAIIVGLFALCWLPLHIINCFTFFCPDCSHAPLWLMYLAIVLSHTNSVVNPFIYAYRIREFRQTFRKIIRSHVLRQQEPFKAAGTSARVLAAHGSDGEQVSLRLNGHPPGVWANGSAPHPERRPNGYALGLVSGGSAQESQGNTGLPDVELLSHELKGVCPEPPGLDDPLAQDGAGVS

A word on the Ki: it is the equilibrium dissociation constant of an inhibitor or competing ligand from its target. A word on the bioavailability: it is dose-corrected exposure relative to a reference, in per cent. High values mean much systemic uptake, low ones little systemic uptake. By Cmax is commonly meant the maximum level reached in the sampled fluid or tissue. As for `Cc1ncnc2ccc(-c3cnc(NC(=O)N4CCOCC4)nc3-c3ccc(F)cc3)cc12` [Compound 11, N-(4-(4-fluorophenyl)-5-(4-methylquinazolin-6-yl)pyrimidin-2-yl) morpholine-4-carboxamide], in data set [1], the Ki turned out to be 3.4 nM and the “Ki(A1)/Ki(A2a)” value is reported as 59.9. The molecule further showed a bioavailability in data set [2] of 65.3%. In data set [2] (IV, 1 mg/kg), the peak level (Cmax) was 1310 ng/mL. The AUC(0-t) in data set [2] (IV, 1 mg/kg, read-out: AUClast) was determined as 985 ng·h/mL. The AUC(0-t) in data set [2] (setting [3]) was 3220 ng·h/mL. In addition, in data set [2] (PO, 5 mg/kg), the “AUClast (brain)” value stood at 11.4 ng·h/g and the “Plasma AUClast/brain AUClast” value was 282/1.
Regarding `Cc1cc(-c2cnc(NC(=O)N3CCOCC3)nc2-c2ccc(F)cc2)cc(Cl)n1` [Compound 19, N-(5-(2-chloro-6-methylpyridin-4-yl)-4-(4-fluorophenyl)pyrimidin-2-yl) morpholine-4-carboxamide], in data set [1], the Ki came out at 9.6 nM and the “Ki(A1)/Ki(A2a)” value was 146.3. Moreover, the bioavailability in data set [2] worked out at 86.8%. This molecule also came in with a maximum concentration (Cmax) in data set [2] (IV, 1 mg/kg) of 1150 ng/mL. Also, in data set [2] (IV, 1 mg/kg, read-out: AUClast), the AUC(0-t) is 2630 ng·h/mL. Also, the AUC(0-t) in data set [2] (setting [3]) stood at 11400 ng·h/mL. Also, in data set [2] (PO, 5 mg/kg), the “AUClast (brain)” value was 70.2 ng·h/g and the “Plasma AUClast/brain AUClast” value was 163/1.
